Measured values published in PubChem BioAssay AID624167 (Sanford-Burnham Center for Chemical Genomics, 2012).
Activity calls are given as the source filed them.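 The calls were made as follows: active = mean IC50 for reducing PEG3 promoter reporter signal at or below a set limit, with IC50 above the limit in both counter screens; inactive = the rest, including counter screen hits.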

Experiments:
PEG-3 [1] = target: PEG-3 (UniProt Q6IN02); experiment: inhibition of PEG-3 promoter-driven reporter – cell-based, HeLa, luciferase, CREF/GAPDH counter-screen panel, dose response (AID 624167); conditions: HeLa PEG-Prom luciferase reporter, overnight, CREF/GAPDH counter-screens, mean of runs
PEG-3 (UniProt Q6IN02), sequence (Q6IN02 whole entry, looked up): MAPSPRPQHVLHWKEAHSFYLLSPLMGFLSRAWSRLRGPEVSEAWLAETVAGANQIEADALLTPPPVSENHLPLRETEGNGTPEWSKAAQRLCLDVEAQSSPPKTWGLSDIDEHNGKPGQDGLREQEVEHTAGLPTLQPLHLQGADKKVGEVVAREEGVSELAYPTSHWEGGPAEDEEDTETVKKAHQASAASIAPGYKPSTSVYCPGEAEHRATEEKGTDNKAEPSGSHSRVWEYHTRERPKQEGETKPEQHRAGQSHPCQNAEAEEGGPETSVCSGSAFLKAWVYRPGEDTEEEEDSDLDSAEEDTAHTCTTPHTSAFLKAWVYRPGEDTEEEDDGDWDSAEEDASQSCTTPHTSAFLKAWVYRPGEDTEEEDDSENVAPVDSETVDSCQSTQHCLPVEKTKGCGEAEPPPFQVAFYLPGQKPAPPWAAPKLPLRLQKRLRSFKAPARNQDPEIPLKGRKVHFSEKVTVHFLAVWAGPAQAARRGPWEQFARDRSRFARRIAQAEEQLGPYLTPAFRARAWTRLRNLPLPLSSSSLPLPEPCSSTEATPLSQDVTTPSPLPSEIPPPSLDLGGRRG

PEG-3 [2] = experiment: as above; conditions: HeLa PEG-Prom luciferase reporter, overnight, CREF/GAPDH counter-screens
[3] = run 1, dose range 1, individual replicate IC50 per panel
[4] = run 2, dose range 1, individual replicate IC50 per panel

## CN1OC[C@@H]2CN[C@H](c3ccc(-c4cc5ccccc5o4)cc3)C[C@@H]21
PEG-3 [1]
  IC50: 18.8 µM
PEG-3 [2]; [3]
  IC50: 24.9 µM
PEG-3 [2]; [4]
  IC50: 12.6 µM

## Cc1cccc(/C=C2/Sc3ccc(C(=O)NCCN4CCCC4)cc3NC2=O)c1
PEG-3 [1]
  IC50: 15.4 µM
PEG-3 [2]; [3]
  IC50: 20.8 µM
PEG-3 [2]; [4]
  IC50: 9.95 µM

## COc1cccc2sc(N(CCCN(C)C)C(=O)C(c3ccccc3)c3ccccc3)nc12
PEG-3 [1]
  IC50: 18.2 µM
PEG-3 [2]; [3]
  IC50: 18.2 µM
PEG-3 [2]; [4]
  IC50: 18.2 µM

## CN(C)CCNc1ncnc2c1sc1nc(N3CCCC3)c3c(c12)CC(C)(C)OC3
PEG-3 [1]
  IC50: inactive
PEG-3 [2]; [3]
  IC50: 32.7 µM
PEG-3 [2]; [4]
  IC50: 13.1 µM

## CCn1c(C)cc(C(=O)COC(=O)c2ccccc2[N+](=O)[O-])c1C
PEG-3 [1]
  IC50: 18.8 µM
PEG-3 [2]; [3]
  IC50: 35.8 µM
PEG-3 [2]; [4]
  IC50: 1.77 µM

## CCc1nc(Sc2nnnn2-c2ccccc2)c2c3c(sc2n1)CCCC3
PEG-3 [1]
  IC50: inactive
PEG-3 [2]; [3]
  IC50: 24.7 µM
PEG-3 [2]; [4]
  IC50: 16.3 µM

## Cc1ccc(NCCN(C)C)c2c(=O)c3cc(O)ccc3sc12
PEG-3 [1]
  IC50: 13.6 µM
PEG-3 [2]; [3]
  IC50: 19.1 µM
PEG-3 [2]; [4]
  IC50: 8.02 µM

## CN(C)CCCNc1ncnc2oc(-c3ccccc3)c(-c3ccccc3)c12
PEG-3 [1]
  IC50: 15.7 µM
PEG-3 [2]; [3]
  IC50: 16.6 µM
PEG-3 [2]; [4]
  IC50: 14.8 µM

## O=[N+]([O-])c1ccc(NC2CCN(Cc3ccccc3)CC2)c2ccncc12
PEG-3 [1]
  IC50: inactive
PEG-3 [2]; [3]
  IC50: 23.9 µM
PEG-3 [2]; [4]
  IC50: 21.7 µM

## NC(N)=N/N=C/c1ccc(Cl)cc1Cl
PEG-3 [1]
  IC50: inactive
PEG-3 [2]; [3]
  IC50: 23.6 µM
PEG-3 [2]; [4]
  IC50: 17.6 µM

## COc1ccc(-c2cc(C(=O)N3CCN(c4ccccc4F)CC3)c3ccccc3n2)c(OC)c1
PEG-3 [1]
  IC50: 11 µM
PEG-3 [2]; [3]
  IC50: 9.03 µM
PEG-3 [2]; [4]
  IC50: 13 µM

## COc1ccc(C2c3c(ncn(CCCN4CCOCC4)c3=N)Oc3ccc4ccccc4c32)cc1OC (centres undefined)
PEG-3 [1]
  IC50: 18.7 µM
PEG-3 [2]; [3]
  IC50: 20.9 µM
PEG-3 [2]; [4]
  IC50: 16.5 µM

## CN(C)S(=O)(=O)c1cccc(NC(=O)CSc2nc3c(cc2C#N)C(=O)CC(C)(C)C3)c1
PEG-3 [1]
  IC50: inactive
PEG-3 [2]; [3]
  IC50: 21.6 µM
PEG-3 [2]; [4]
  IC50: 19.6 µM

## Cc1ccc(-c2cc(-c3ccc(C)cc3)[n+](-c3ccccc3)c(-c3ccc(C)cc3)c2)cc1
PEG-3 [1]
  IC50: > 100 µM (inactive)
PEG-3 [2]; [3]
  IC50: > 100 µM
PEG-3 [2]; [4]
  IC50: > 100 µM

## O=S(=O)(CC(CN1CCCCC1)N1CCCCC1)c1ccccc1 (centres undefined)
PEG-3 [1]
  IC50: inactive
PEG-3 [2]; [3]
  IC50: 38.2 µM
PEG-3 [2]; [4]
  IC50: 18.2 µM

## O=C1NC(=O)N(Cc2ccco2)C(=O)/C1=C/C=C/c1ccco1
PEG-3 [1]
  IC50: 13.7 µM
PEG-3 [2]; [3]
  IC50: 14.8 µM
PEG-3 [2]; [4]
  IC50: 12.6 µM

## CCN1C/C(=C/c2ccc(N3CCOCC3)cc2)C(=O)/C(=C/c2ccc(N3CCOCC3)cc2)C1
PEG-3 [1]
  IC50: 14.5 µM
PEG-3 [2]; [3]
  IC50: 15.9 µM
PEG-3 [2]; [4]
  IC50: 13 µM

## CCOc1cc(/C=N/Nc2nc(-c3cccc(S(=O)(=O)N4CCCC4)c3)cs2)ccc1O
PEG-3 [1]
  IC50: inactive
PEG-3 [2]; [3]
  IC50: 22.3 µM
PEG-3 [2]; [4]
  IC50: 60.1 µM

## CCOc1cc(CNCCCN2CCOCC2)ccc1OCC(=O)Nc1cccc2ccccc12
PEG-3 [1]
  IC50: 18.7 µM
PEG-3 [2]; [3]
  IC50: 21.1 µM
PEG-3 [2]; [4]
  IC50: 16.2 µM

## COc1ccccc1CCNC(=O)C1CCN(c2nnc(C)c3c(C)n(-c4ccc(C)cc4)nc23)CC1
PEG-3 [1]
  IC50: inactive
PEG-3 [2]; [3]
  IC50: 19.4 µM
PEG-3 [2]; [4]
  IC50: 24.1 µM

## COc1cccc(C2CC3C(=O)C=CC2N3Cc2ccccc2)c1 (centres undefined)
PEG-3 [1]
  IC50: 13 µM
PEG-3 [2]; [3]
  IC50: 11.9 µM
PEG-3 [2]; [4]
  IC50: 14.1 µM

## CCOC(=O)c1cnc2c(cnn2C)c1NCCCN(C)C
PEG-3 [1]
  IC50: inactive
PEG-3 [2]; [3]
  IC50: 18.9 µM
PEG-3 [2]; [4]
  IC50: 28.8 µM

## CC(C)CN(C(=O)COC(=O)/C=C/c1ccc(Cl)c(Cl)c1)c1c(N)n(Cc2ccccc2)c(=O)[nH]c1=O
PEG-3 [1]
  IC50: > 100 µM (inactive)
PEG-3 [2]; [3]
  IC50: > 100 µM
PEG-3 [2]; [4]
  IC50: > 100 µM

## Cc1ccc(-n2cc(-c3ccccc3)c3c(N4CCOCC4)ncnc32)cc1
PEG-3 [1]
  IC50: 18.2 µM
PEG-3 [2]; [3]
  IC50: 10.8 µM
PEG-3 [2]; [4]
  IC50: 25.7 µM

## COc1cccc(/C=N/NC(=O)c2c(-c3ccccc3)noc2C)c1O
PEG-3 [1]
  IC50: inactive
PEG-3 [2]; [3]
  IC50: 42.2 µM
PEG-3 [2]; [4]
  IC50: > 100 µM

## CCN1CCc2c(sc(NC(=O)c3ccc(S(=O)(=O)N4CCCCCC4)cc3)c2C(=O)NC)C1
PEG-3 [1]
  IC50: inactive
PEG-3 [2]; [3]
  IC50: 21.2 µM
PEG-3 [2]; [4]
  IC50: 24.5 µM

## Cc1cccc(C)c1-n1nnnc1C(c1ccccc1OC(F)(F)F)N1CCC(n2c(=O)[nH]c3ccccc32)CC1 (centres undefined)
PEG-3 [1]
  IC50: 12.7 µM
PEG-3 [2]; [3]
  IC50: 20.8 µM
PEG-3 [2]; [4]
  IC50: 4.64 µM

## O=C(O)CN1C(=O)/C(=C\c2ccccc2OCc2ccc(Cl)cc2Cl)SC1=S
PEG-3 [1]
  IC50: 16.9 µM
PEG-3 [2]; [3]
  IC50: 16.6 µM
PEG-3 [2]; [4]
  IC50: 17.2 µM

## C[C@@H](NCCCn1cnc2c(OCc3ccccc3)ncnc21)c1cccc2ccccc12
PEG-3 [1]
  IC50: 16.5 µM
PEG-3 [2]; [3]
  IC50: 17.7 µM
PEG-3 [2]; [4]
  IC50: 15.2 µM

## CCCn1c(=N)n(CC(=O)c2ccc(Cl)cc2)c2ccccc21
PEG-3 [1]
  IC50: inactive
PEG-3 [2]; [3]
  IC50: 19.1 µM
PEG-3 [2]; [4]
  IC50: 49.4 µM

## COc1ccc(-c2nc(NC(=O)c3n[nH]c(=O)c4ccccc34)sc2C)cc1
PEG-3 [1]
  IC50: inactive
PEG-3 [2]; [3]
  IC50: 0.904 µM
PEG-3 [2]; [4]
  IC50: > 100 µM

## Cc1ccc(-c2nnc(N3CCN(c4ccccn4)CC3)c3ccccc23)cc1
PEG-3 [1]
  IC50: 18.2 µM
PEG-3 [2]; [3]
  IC50: 20.9 µM
PEG-3 [2]; [4]
  IC50: 15.4 µM

## CN(C(=O)OC(C)(C)C)c1ccc(-c2nc3ccccc3s2)cc1
PEG-3 [1]
  IC50: 2.31 µM
PEG-3 [2]; [3]
  IC50: < 0.2 µM
PEG-3 [2]; [4]
  IC50: 4.43 µM

## N#Cc1cc2c(nc1SC1CC(=O)N(c3ccccc3)C1=O)CCC2 (centres undefined)
PEG-3 [1]
  IC50: inactive
PEG-3 [2]; [3]
  IC50: > 100 µM
PEG-3 [2]; [4]
  IC50: 1.02 µM

## CC(C)N1CCc2c(sc(NC(=O)c3cc4cc([N+](=O)[O-])ccc4s3)c2C(N)=O)C1
PEG-3 [1]
  IC50: inactive
PEG-3 [2]; [3]
  IC50: 22.5 µM
PEG-3 [2]; [4]
  IC50: 17.6 µM

## CC(C(=O)NC1CCCC1)N(C(=O)Cn1nnc(-c2ccc(F)cc2)n1)c1ccccc1F (centres undefined)
PEG-3 [1]
  IC50: inactive
PEG-3 [2]; [3]
  IC50: 22.9 µM
PEG-3 [2]; [4]
  IC50: 69.9 µM

## O=C1NC(=S)NC(=O)C1=Cc1cccn1-c1ccc(O)cc1
PEG-3 [1]
  IC50: 16.4 µM
PEG-3 [2]; [3]
  IC50: 18 µM
PEG-3 [2]; [4]
  IC50: 14.8 µM

## COc1ccc(Nc2nc(-c3ccccc3)nc3ccccc23)cc1S(=O)(=O)N1CCOCC1
PEG-3 [1]
  IC50: inactive
PEG-3 [2]; [3]
  IC50: 9.14 µM
PEG-3 [2]; [4]
  IC50: 33.9 µM

## CCN1CCN(c2ccc(S(=O)(=O)N3CCOCC3)cc2NC(=O)/C=C/c2ccc([N+](=O)[O-])cc2)CC1
PEG-3 [1]
  IC50: inactive
PEG-3 [2]; [3]
  IC50: 19 µM
PEG-3 [2]; [4]
  IC50: 78.3 µM

## CCc1ccc2c(c1)Sc1ccccc1CC2N1CCN(C)CC1 (centres undefined)
PEG-3 [1]
  IC50: inactive
PEG-3 [2]; [3]
  IC50: 19.7 µM
PEG-3 [2]; [4]
  IC50: 38 µM

## OC1(c2ccc(Cl)c(Cl)c2)C[n+]2ccccc2N1Cc1ccccc1 (centres undefined)
PEG-3 [1]
  IC50: 15.1 µM
PEG-3 [2]; [3]
  IC50: 16 µM
PEG-3 [2]; [4]
  IC50: 14.1 µM

## c1ccc(-c2cc(-c3nc4ccccc4[nH]3)c3ccccc3n2)cc1
PEG-3 [1]
  IC50: inactive
PEG-3 [2]; [3]
  IC50: 15.3 µM
PEG-3 [2]; [4]
  IC50: 39.9 µM

## O=S(=O)(Nc1cccc2ncccc12)c1cccs1
PEG-3 [1]
  IC50: 13.2 µM
PEG-3 [2]; [3]
  IC50: 17.5 µM
PEG-3 [2]; [4]
  IC50: 8.93 µM

## C[C@@]12C(=O)Nc3cc(Cl)ccc3C(=O)N1[C@H]1c3cc(Cl)ccc3OC[C@@H]1[C@@H]2c1ccccc1
PEG-3 [1]
  IC50: 11.5 µM
PEG-3 [2]; [3]
  IC50: 16.3 µM
PEG-3 [2]; [4]
  IC50: 6.77 µM

## Cc1c(OCC(=O)NC2CC(C)(C)NC(C)(C)C2)ccc2c1oc(=O)c1ccccc12
PEG-3 [1]
  IC50: inactive
PEG-3 [2]; [3]
  IC50: 43.5 µM
PEG-3 [2]; [4]
  IC50: > 100 µM

## CC(C)CC(NS(=O)(=O)OCC(Cl)(Cl)Cl)c1ccccc1 (centres undefined)
PEG-3 [1]
  IC50: inactive
PEG-3 [2]; [3]
  IC50: 47.6 µM
PEG-3 [2]; [4]
  IC50: 17.5 µM

## Cc1cc(C(=O)CN2C(=O)c3ccccc3S2(=O)=O)c(C)n1C(C)C
PEG-3 [1]
  IC50: 12.1 µM
PEG-3 [2]; [3]
  IC50: 6.41 µM
PEG-3 [2]; [4]
  IC50: 17.8 µM

## COc1cccc(-c2nnc3n2N=C(C(C)(C)C)CS3)c1
PEG-3 [1]
  IC50: 17.8 µM
PEG-3 [2]; [3]
  IC50: 14.1 µM
PEG-3 [2]; [4]
  IC50: 21.5 µM
